Source: ChEMBL document CHEMBL5390312, “Discovery of Tumor-Targeted 6-Methyl Substituted Pemetrexed and Related Antifolates with Selective Loss of RFC Transport” (ACS Med Chem Lett, 2023)
Activity calls are given as the source filed them. The calls are words filed in the database; no cut-off is given here.

Key:
Type in all cases: functional, cell-based
[1] = Antiproliferative activity against chinese hamster R2 cells assessed as inhibition of cell growth incubated for 96 h by CellTiter-Blue cell viability assay; settings: Cricetulus griseus, R2, 96 h
KB [2] = test: Antiproliferative activity against human KB cells assessed as inhibition of cell growth upto 1000 nM incubated for 96 hrs in the presence of thymidylate by CellTiter-Blue cell viability assay
KB [3] = test: Antiproliferative activity against human KB cells assessed as inhibition of cell growth upto 1000 nM incubated for 96 hrs in the presence of adenosine by CellTiter-Blue cell viability assay
KB [4] = test: Antiproliferative activity against human KB cells assessed as inhibition of cell growth upto 1000 nM incubated for 96 hrs in the presence of thymidine by CellTiter-Blue cell viability assay
KB [5] = test: Antiproliferative activity against human KB cells assessed as inhibition of cell growth upto 1000 nM incubated for 96 hrs in the presence of glycine by CellTiter-Blue cell viability assay
KB [6] = test: Antiproliferative activity against human KB cells assessed as inhibition of cell growth upto 1000 nM incubated for 96 hrs in the presence of AICA by CellTiter-Blue cell viability assay

Compound	IC50 [1]	Activity (KB [2])	Activity (KB [3])	Activity (KB [4])	Activity (KB [5])	Activity (KB [6])
Nc1nc2[nH]cc(CCCc3ccc(C(=O)N[C@@H](CCC(=O)O)C(=O)O)cc3)c2c(=O)[nH]1	> 1000 nM	Active	inactive	inactive	inactive	inactive
Nc1nc2[nH]cc(CCc3ccc(C(=O)N[C@@H](CCC(=O)O)C(=O)O)s3)c2c(=O)[nH]1	> 1000 nM	–	–	–	–	–
Cc1[nH]c2nc(N)[nH]c(=O)c2c1CCCc1ccc(C(=O)N[C@@H](CCC(=O)O)C(=O)O)cc1	> 1000 nM	–	inactive	–	–	inactive
Nc1nc2[nH]cc(CCc3ccc(C(=O)N[C@@H](CCC(=O)O)C(=O)O)c(F)c3)c2c(=O)[nH]1	> 1000 nM	Active	inactive	inactive	–	inactive
Cc1[nH]c2nc(N)[nH]c(=O)c2c1CCc1ccc(C(=O)N[C@@H](CCC(=O)O)C(=O)O)s1	> 1000 nM	–	inactive	–	–	inactive
Cc1[nH]c2nc(N)[nH]c(=O)c2c1CCc1ccc(C(=O)N[C@@H](CCC(=O)O)C(=O)O)c(F)c1	> 1000 nM	–	inactive	–	–	inactive
Cc1[nH]c2nc(N)[nH]c(=O)c2c1CCc1ccc(C(=O)N[C@@H](CCC(=O)O)C(=O)O)cc1	> 1000 nM	–	inactive	–	–	inactive
Nc1nc2[nH]cc(CCc3ccc(C(=O)N[C@@H](CCC(=O)O)C(=O)O)cc3)c2c(=O)[nH]1 [PEMETREXED]	> 1000 nM	Active	inactive	inactive	–	inactive
